Target: T1, human P2X7 receptor (Homo sapiens, UniProt Q99572, R270H)
T1 construct: expressed in transfected cells
T1 sequence (Q99572 1-595 R270H): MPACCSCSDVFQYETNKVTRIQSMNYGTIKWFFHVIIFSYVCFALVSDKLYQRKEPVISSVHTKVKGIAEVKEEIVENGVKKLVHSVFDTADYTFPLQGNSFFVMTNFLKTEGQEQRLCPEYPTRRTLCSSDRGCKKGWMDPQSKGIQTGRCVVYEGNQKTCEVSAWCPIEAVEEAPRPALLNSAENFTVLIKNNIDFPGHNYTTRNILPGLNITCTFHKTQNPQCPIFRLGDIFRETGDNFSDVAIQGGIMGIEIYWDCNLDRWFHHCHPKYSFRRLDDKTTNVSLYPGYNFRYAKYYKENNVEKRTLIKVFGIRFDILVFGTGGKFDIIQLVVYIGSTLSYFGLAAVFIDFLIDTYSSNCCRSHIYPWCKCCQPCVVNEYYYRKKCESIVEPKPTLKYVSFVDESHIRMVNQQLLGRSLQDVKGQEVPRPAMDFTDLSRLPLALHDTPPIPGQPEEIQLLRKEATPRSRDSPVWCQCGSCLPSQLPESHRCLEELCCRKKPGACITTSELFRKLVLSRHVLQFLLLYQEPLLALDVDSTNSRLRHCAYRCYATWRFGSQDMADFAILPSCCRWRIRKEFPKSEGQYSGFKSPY
Assay: Evaluation of a human P2X7 receptor inhibitory activity (Yo-Pro uptake, BzATP stimulation, FLIPR TETRA)
Type: cell-based
Settings: antagonistic activity for the human P2X7 receptor, 1321N1 cell transfected with the human P2X7 receptor gene, Yo-Pro fluorescence
Procedure: Test Example 1 Evaluation of a Human P2X7 Receptor Inhibitory Activity
Stably expressing cell line (1321N1 cell transfected with the human P2X7 receptor gene (GenBank accession number NM_002562.5 including T606C and G952A SNP)) was used. The cells were seeded in a 384-well microtiter plate at a concentration of 8000 cells/well and cultured in the medium (10% fetal bovine serum, 25 mM HEPES, 1% penicillin and streptomycin in DMEM) for one day at 37° C. under 5% carbon dioxide atmosphere. After replacing with 20 μL of the HBSS buffer (20 mM HEPES. 55.6 mM D-glucose, 1×HBSS(−), pH 7.4-7.5), 15 μL of 17.3 μM Yo-Pro solution in the HBSS buffer was added. The plate was placed in high-throughput cellular screening system FLIPR TETRA (Molecullar Devices, LLC.) and 15 μL of 130 μM BzATP solution in the HBSS buffer was added. Measurement of fluorescence intensity by FLIPR TETRA was started. After eight minutes, 15 μL of DMSO solutions containing different concentrations of the compound of the present invention as prepared by dilution with the HBSS buffer were dispensed to each well through the built-in automatic dispenser, and the measurement of fluorescence intensity was continued for 20 minutes. The maximum fluorescence intensity without the compound of the present invention is calculated as 0% inhibition and the maximum fluorescence intensity when the reference compound was added is calculated as 100% inhibition. Changing values of fluorescence intensity by the compound of the present invention were calculated by difference between maximum and minimum fluorescence intensity for 20 minutes. Inhibition ratios (%) were calculated from the following equation:
[formula] IC50 was calculated using logistic approximation.

| IC50 (class symbols) | IC50 | Compound |
| --- | --- | --- |
| 1000 to 10000 nM | – | COc1cn(Cc2ccccc2C)c(C2=CCCCC2)nc1=O [II-057] |
| 1000 to 10000 nM | – | COc1cn(Cc2ccccc2C)c(-c2ccccc2)nc1=O [II-058] |
| 1000 to 10000 nM | – | COc1cn(Cc2ccccc2C)c(-c2cccc(Cl)c2)nc1=O [II-059] |
| 1000 to 10000 nM | – | COc1cn(Cc2ccccc2C)c(-c2ccc(Cl)cc2)nc1=O [II-060] |
| 1000 to 10000 nM | – | COc1cn(Cc2ccccc2C)c(-c2ccccc2F)nc1=O [II-061] |
| 1000 to 10000 nM | – | COc1cn(Cc2ccccc2C)c(-c2cccc(F)c2)nc1=O [II-062] |
| 1000 to 10000 nM | – | COc1cn(Cc2ccccc2C)c(-c2ccc(F)cc2)nc1=O [II-063] |
| 500 to 1000 nM | – | COc1cn(Cc2ccccc2C)c(-c2ccccc2C(F)(F)F)nc1=O [II-064] |
| 100 to 500 nM | – | COc1cn(Cc2ccccc2C)c(-c2cccc(C(F)(F)F)c2)nc1=O [II-065] |
| 1000 to 10000 nM | – | COc1cn(Cc2ccccc2C)c(-c2ccc(C(F)(F)F)cc2)nc1=O [II-066] |
| 1000 to 10000 nM | – | COc1cn(Cc2ccccc2C)c(-c2ccc(-c3ccccc3)cc2)nc1=O [II-067] |
| 1000 to 10000 nM | – | COc1cn(Cc2ccccc2C)c(-c2cccc(-c3ccccc3)c2)nc1=O [II-068] |
| 1000 to 10000 nM | – | COc1cn(Cc2ccccc2)c(C2=CCCCCC2)nc1=O [II-069] |
| 1000 to 10000 nM | – | COc1cn(Cc2ccccc2)c(-c2cnn(Cc3ccccc3)c2)nc1=O [II-070] |
| 1000 to 10000 nM | – | COc1cn(Cc2ccccc2)c(C2=C[C@H]3CC[C@@H]2C3)nc1=O [II-071] |
| 1000 to 10000 nM | – | COc1cn(Cc2ccccc2)c(C2=CCSCC2)nc1=O [II-072] |
| – | 630 nM | COc1cn(Cc2ccccc2)c(C2=CCC3(CC2)CC3)nc1=O [II-073] |
| 500 to 1000 nM | – | COc1cn(Cc2ccccc2C)c(-c2ccccc2Cl)nc1=O [II-074] |
| 1000 to 10000 nM | – | O=c1ccn(CCc2ccccc2)c(-c2cccc(C(F)(F)F)c2Cl)n1 [II-076] |
| – | 610 nM | O=c1ccn(CC2CCCCC2)c(-c2cccc(C(F)(F)F)c2Cl)n1 [II-077] |
| 500 to 1000 nM | – | COc1cn(Cc2ccccc2)c(-c2cccc(F)c2F)nc1=O [II-078] |
| 1000 to 10000 nM | – | COc1cccc(-c2nc(=O)c(OC)cn2Cc2ccccc2)c1Cl [II-079] |
| 50 to 100 nM | – | O=c1nc(-c2cccc(C(F)(F)F)c2Cl)n(Cc2ccccc2)cc1Oc1ccccc1 [II-080] |

| IC50 (class symbols) | IC50 | Compound |
| --- | --- | --- |
| 500 to 1000 nM | – | COc1cn(Cc2ccccc2)c(-c2cccc(Cl)c2C)nc1=O [II-081] |
| – | 190 nM | COc1cn(Cc2ccccc2)c(-c2ccc(Cl)cc2Cl)nc1=O [II-082] |
| 50 to 100 nM | – | COc1cn(Cc2ccccc2)c(-c2cccc(Cl)c2C(F)(F)F)nc1=O [II-083] |
| 100 to 500 nM | – | COc1cn(Cc2ccccc2)c(-c2ccc(Cl)c(Cl)c2)nc1=O [II-084] |
| < 50 nM | – | N#CCn1cc(OCc2ccccc2)c(=O)nc1-c1cccc(C(F)(F)F)c1Cl [II-085] |
| < 50 nM | – | COc1cccc(Cn2cc(OC)c(=O)nc2-c2cccc(C(F)(F)F)c2Cl)c1 [II-086] |
| < 50 nM | – | COc1ccccc1Cn1cc(OC)c(=O)nc1-c1cccc(C(F)(F)F)c1Cl [II-087] |
| 500 to 1000 nM | – | COc1cn(Cc2ccccc2)c(-c2ccc(C(F)(F)F)cc2Cl)nc1=O [II-088] |
| < 50 nM | – | Cc1ccccc1Cn1cc(OCC(F)(F)F)c(=O)nc1-c1cccc(C(F)(F)F)c1Cl [II-089] |
| < 50 nM | – | Cc1ccccc1Cn1cc(OCC#N)c(=O)nc1-c1cccc(C(F)(F)F)c1Cl [II-090] |
| < 50 nM | – | Cc1ccccc1Cn1cc(C#N)c(=O)nc1-c1cccc(C(F)(F)F)c1Cl [II-091] |
| < 50 nM | – | COc1ccccc1Cn1cc(C#N)c(=O)nc1-c1cccc(C(F)(F)F)c1Cl [II-092] |
| < 50 nM | – | COc1ccccc1Cn1cc(F)c(=O)nc1-c1cccc(C(F)(F)F)c1Cl [II-093] |
| 100 to 500 nM | – | COc1cn(Cc2cccnc2C(F)(F)F)c(-c2cccc(C(F)(F)F)c2Cl)nc1=O [II-094] |
| < 50 nM | – | COc1cn(Cc2ccccc2Cl)c(-c2cccc(C(F)(F)F)c2Cl)nc1=O [II-095] |
| 100 to 500 nM | – | COc1cn(Cc2ccc(Cl)cc2)c(-c2cccc(C(F)(F)F)c2Cl)nc1=O [II-096] |
| < 50 nM | – | COc1cn(Cc2ccccc2OC(F)(F)F)c(-c2cccc(C(F)(F)F)c2Cl)nc1=O [II-097] |
| 100 to 500 nM | – | COc1cn(Cc2ccccc2SC(F)(F)F)c(-c2cccc(C(F)(F)F)c2Cl)nc1=O [II-098] |
| < 50 nM | – | COc1cn(Cc2ccccc2C(F)(F)F)c(-c2cccc(C(F)(F)F)c2Cl)nc1=O [II-099] |
| 50 to 100 nM | – | COc1cn(Cc2cccc(Cl)c2)c(-c2cccc(C(F)(F)F)c2Cl)nc1=O [II-100] |
| 1000 to 10000 nM | – | COc1cn(Cc2ccccc2)c(-c2cc(Cl)ccc2Cl)nc1=O [II-101] |
| – | 110 nM | O=c1cc(-c2cccc(C(F)(F)F)c2Cl)n(Cc2ccccc2)cn1 [III-001] |
| – | 110 nM | O=c1cnn(Cc2ccccc2)c(-c2cccc(C(F)(F)F)c2Cl)c1 [III-002] |

— patent US9988373B2, “Nitrogen-containing six-membered cyclic derivatives and pharmaceutical composition comprising the same” (SHIONOGI & CO., LTD., priority 2013, dated 2018)
